In paper PMC10946275, “New imidazole-2-thiones linked to acenaphythylenone as dual DNA intercalators and topoisomerase II inhibitors: structural optimization, docking, and apoptosis studies” (Journal of Enzyme Inhibition and Medicinal Chemistry, 2024):
Values joined by “and” are separate entries in the source; they are usually repeats but may differ in a detail not shown here. Identical values can stand only once.

Legend:
calf thymus DNA (ctDNA) = test: Terbium (Tb3+) luminescent biosensor detection of induced DNA damage; format: biochemical; conditions: for Tb luminescence enhancement (induced DNA damage): ctDNA incubated with compound 24 h, emission 545 nm, excitation 270 nm, compared with ctDNA-Tb mixture; for Concentration at which Tb luminescence stops increasing (maximum DNA damage) / LOD (limit of detection; minimum concentration inducing detectable damage in ctDNA) / LOQ (limit of quantitation): ctDNA, 24 h incubation
Description: Luminescence studies were accomplished in order to examine the possible DNA interaction with the studied compounds. Many luminescent biosensors are reported in literature for studying the possibility of DNA interaction with small molecules. […] Figure 5 presents a schematic diagram for the fluorometric detection of the induced DNA damage using Tb biosensor. Tb^3+ ion in the Tb luminescent probe is a trivalent lanthanide cation having low intrinsic luminescence in aqueous solutions[45]^,[46]. When Tb biosensor is added to a solution of DNA, it interacts differently with double-stranded DNA (dsDNA) and single-stranded DNA (ssDNA). With dsDNA, Tb^3+ ions are electrostatically attracted to the negatively charged phosphate backbone of the DNA. […] Therefore, the assessed compound damages dsDNA, ssDNA sites would be formed opposite to the site of damage and Tb^3+ would directly coordinate to the unpaired nucleobases in this single-stranded site.
For investigating the DNA interaction potential of the fourteen studied compounds, calf thymus DNA (ctDNA) was incubated with each compound for 24 h and then Tb was added to each mixture. Doxorubicin (DOX), a commonly used reference for DNA damaging agent was used and treated the same condition as the studied compounds. Tb luminescent intensity was measured at λmax = 545 nm after excitation at λmax = 270 nm.
Several concentrations within the range of 0.1 pM–200.0 μM of each of the studied compounds were incubated with ctDNA for 24 h. After which, Tb solution was added to aliquots of such mixtures and the luminescence intensity was recorded. Figure 7 presents Tb luminescence intensity as a function of the compound concentration for various compound/ctDNA/Tb mixtures. At minimum concentration of the studied compounds, minimum Tb luminescence was recorded. This reflects that the DNA molecule is undamaged, intact and acquiring a double helical structure. In this conformation, Tb ions are electrostatically attracted to the negatively charged DNA-phosphate backbone showing no increase in its luminescence. For solutions with higher concentrations of compounds 5b, 5h, and 5j (Figure 7a,c,and d). Tb fluorescence increased proportionally with the concentration until a concentration of 100 and 60 μM for compounds 5b, 5h, and 5j, respectively, where no further increase in the fluorescence occurs. This reflects that more DNA damage is induced with increasing concentrations of the three compounds. At concentrations higher than 100 and 60 μM for compounds 5b, 5h, and 5j, respectively, Tb luminescence remains constant at high fluorescence levels. […] Table 1 illustrates the analytical parameters elucidated as shown in Figure 7 for the quantification of the induced DNA damage by the studied compounds. The linearity parameters were calculated from the calibration curve in Figure 7-inset in order to obtain the minimum concentration of the studied compounds that would induce DNA damage.
Fluorescence measurements: Fluorescence spectra were measured between 290 and 800 nm with excitation at 270 nm of 100 µL solutions in a 1 cm path length Suprasil quartz fluorescence cuvette.
The PerkinElmer LS 55 fluorescence spectrophotometer was used to measure the fluorescence. After 24 h of incubation in buffer solution (40 mM Tris, 10 mM NaCl, pH 7.5), aliquots of each DNA-Compound mixture were combined with TbCl3 to confirm DNA damage. The final concentrations were […] ctDNA, 3 mM TbCl3, and 50 µM of each compound in buffer solution (40 mM Tris, 10 mM NaCl, pH 7.5). Calf thymus DNA (ctDNA) was combined with various quantities of each substance, ranging from 0.1 pM to 200 µM, for the experiment. The ultimate concentrations of […] ctDNA and 3 mM were achieved by adding Tb3 + solution to the ctDNA/compound combinations in buffer solution (40 mM Tris, 10 mM NaCl, pH 7.5) after 24 h of incubation.[44]
All chemicals, solvents, media and kits were purchased from commercial suppliers. […]

[1] = test system: hepatocellular carcinoma (HepG2); test: MTT cytotoxicity assay, HepG2; format: cell-based; conditions: Homo sapiens, 24 h treatment, read-out: IC50 against HepG2
Method: (§1) (Supplementary file). Compounds 5b and 5h were screened for their effects on the normal breast cell line MCF‐10a. Cells at a density of 1 × 104 were seeded in a 96‐well plate at 37 °C for 48 h under 5% CO2. After incubation, the cells were treated with different concentrations of the prepared molecules and incubated for 24 h. MTT dye was added after 24 h of drug treatment and incubated for 4 h at 37 °C. Also, 100 μl of dimethyl sulphoxide was added to each well to dissolve the purple formazan formed. The colour intensity of the formazan product, which represents the growth condition of the cells, was quantified using an enzyme‐linked immunosorbent assay (ELISA) plate reader at 570 nm. The experiments were carried out with at least three replicates and they were repeated at least three times.
(§2) All chemicals, solvents, media and kits were purchased from commercial suppliers.
(§3) In vitro anticancer screening […]
(§4) against three cancer cell lines namely: hepatocellular carcinoma (HepG2), human breast adenocarcinoma (MCF-7) and human colon cancer (HCT -116) utilizing MTT assay2. Compounds […]
(§5) 5b and 5h were screened for their effects on the normal breast cell line MCF‐10a. Cells at a density of 1 × 104 were seeded in a 96‐well plate at 37°C for 48 hr under 5% CO2. After incubation, the cells were treated with different concentrations of the prepared molecules and incubated for 24 hr.
(§6) MTT dye was added after 24 h of drug treatment and incubated for 4 h at 37°C. Also, 100 μl of dimethyl sulphoxide was added to each well to dissolve the purple formazan formed. The color intensity of the formazan product, which represents the growth condition of the cells, was quantified using an enzyme‐linked immunosorbent assay (ELISA) plate reader at 570 nm. The experiments were carried out with at least three replicates and they were repeated at least three […]
(§7) *: Statistically significant at p ≤ 0.05
(§8) Means with any Common letter (a-e) are not significant (OR Means with totally Different letters (a-e) are significant)

[2] = test system: human breast adenocarcinoma (MCF-7); test: MTT cytotoxicity assay, MCF-7; format: cell-based; conditions: for IC50: Homo sapiens, MCF7, MTT, 24 h treatment, read-out: IC50 against MCF-7; for folds more active than doxorubicin: MCF-7; for Selectivity Index (SI): against MCF-7, relative to normal MCF-10a
Method: as §1, §2, §3, §4, §5, §6, §7, §8

[3] = test system: human colon cancer (HCT-116); test: MTT cytotoxicity assay, HCT-116; format: cell-based; conditions: 24 h treatment, read-out: IC50 against HCT-116
Method: as §2, §3, §4, §5, §6, §7, §8

[4] = test system: normal breast cell line (MCF-10a); test: MTT cytotoxicity assay, normal breast cell line MCF-10a; format: cell-based; conditions: Homo sapiens, 24 h treatment, read-out: IC50 against MCF-10a (normal cell)
Method: as §1, §5, §6, §7
Means with any Common letter (a-e) are not significant (OR Means with totally Different letters (a-e) are significant) Annexin V-FITC/PI Apoptosis Induction Analysis 3
Apoptosis detection in MCf-7 cells was assessed using BioVision® annexin‐V‐FITC apoptosis detection kit according to the manufacturer's instructions and quantified by flow cytometry at 488

MCF-7 cells [5] = test: Annexin V-FITC/PI apoptosis induction analysis (flow cytometry); format: cell-based, human; conditions: MCF-7, compound at its IC50, 24 h
MCF-7 cells [6] = test: Cell cycle analysis (DNA flow cytometry, PI); conditions: for Phase of cell cycle arrest: MCF-7, compound at its IC50; for Cell cycle arrest (%) G0-G1 / Cell cycle arrest (%) G2/M / Cell cycle arrest (%) S: MCF-7, compound at its IC50, 24 h
Method: Cell cycle analysis: A FACS Calibur flow cytometer was used to measure the amount of DNA in the cell cycle analysis at 488 nm in accordance with the manufacturer’s recommendations. […] Cells were treated, rinsed twice, and then re-suspended in ice-cold PBS (phosphate buffer saline). After washing, 0.7 ml of 100% ethanol was added, and the mixture was then allowed to sit at 20 °C for 20 min. After washing, 500 μl of RNase was added, and then the mixture was incubated for 30 min. After that, PI was added, and the mixture was incubated without light for 30 min[22]^,[51].
3 Replica for each group Data was expressed using Mean ± SEM.
F: F for One way ANOVA test, Pairwise comparison bet. each 2 groups was done using Post Hoc Test (Tukey)
p: p value for comparing between the studied groups
p0: p value for comparing between Control and each other group
p1: p value for comparing between 5h and 5b
p2: p value for comparing between 5h and Dox
p3: p value for comparing between 5b and Dox
DNA content in the cell cycle analysis was quantified with the help ofa FACS Calibur flow
cytometer at 488 nm according to the manufacturer's instructions. Briefly, 2 × 10^5 cells/well were
cells were washed two times and resuspended in ice-cold phosphate buffer saline PBS. After
washing, 0.7 ml absolute ethanol was then added, followed by incubation at −20°C for 20 min.
After washing, 500 μl RNase was added, followed by incubation for 30 min. PI was then added,
followed by incubation for 30 min (light was avoided).

[7] = target: T1, human DNA topoisomerase II-β (TOPII-β) (Homo sapiens, UniProt Q02880); test: In vitro topoisomerase II inhibitory assay (ELISA kit); format: biochemical; conditions: ELISA kit MBS#942146; read-out: IC50 against topo II enzyme
T1 construct: own knowledge) MBS#942146
T1 sequence (Q02880 whole entry): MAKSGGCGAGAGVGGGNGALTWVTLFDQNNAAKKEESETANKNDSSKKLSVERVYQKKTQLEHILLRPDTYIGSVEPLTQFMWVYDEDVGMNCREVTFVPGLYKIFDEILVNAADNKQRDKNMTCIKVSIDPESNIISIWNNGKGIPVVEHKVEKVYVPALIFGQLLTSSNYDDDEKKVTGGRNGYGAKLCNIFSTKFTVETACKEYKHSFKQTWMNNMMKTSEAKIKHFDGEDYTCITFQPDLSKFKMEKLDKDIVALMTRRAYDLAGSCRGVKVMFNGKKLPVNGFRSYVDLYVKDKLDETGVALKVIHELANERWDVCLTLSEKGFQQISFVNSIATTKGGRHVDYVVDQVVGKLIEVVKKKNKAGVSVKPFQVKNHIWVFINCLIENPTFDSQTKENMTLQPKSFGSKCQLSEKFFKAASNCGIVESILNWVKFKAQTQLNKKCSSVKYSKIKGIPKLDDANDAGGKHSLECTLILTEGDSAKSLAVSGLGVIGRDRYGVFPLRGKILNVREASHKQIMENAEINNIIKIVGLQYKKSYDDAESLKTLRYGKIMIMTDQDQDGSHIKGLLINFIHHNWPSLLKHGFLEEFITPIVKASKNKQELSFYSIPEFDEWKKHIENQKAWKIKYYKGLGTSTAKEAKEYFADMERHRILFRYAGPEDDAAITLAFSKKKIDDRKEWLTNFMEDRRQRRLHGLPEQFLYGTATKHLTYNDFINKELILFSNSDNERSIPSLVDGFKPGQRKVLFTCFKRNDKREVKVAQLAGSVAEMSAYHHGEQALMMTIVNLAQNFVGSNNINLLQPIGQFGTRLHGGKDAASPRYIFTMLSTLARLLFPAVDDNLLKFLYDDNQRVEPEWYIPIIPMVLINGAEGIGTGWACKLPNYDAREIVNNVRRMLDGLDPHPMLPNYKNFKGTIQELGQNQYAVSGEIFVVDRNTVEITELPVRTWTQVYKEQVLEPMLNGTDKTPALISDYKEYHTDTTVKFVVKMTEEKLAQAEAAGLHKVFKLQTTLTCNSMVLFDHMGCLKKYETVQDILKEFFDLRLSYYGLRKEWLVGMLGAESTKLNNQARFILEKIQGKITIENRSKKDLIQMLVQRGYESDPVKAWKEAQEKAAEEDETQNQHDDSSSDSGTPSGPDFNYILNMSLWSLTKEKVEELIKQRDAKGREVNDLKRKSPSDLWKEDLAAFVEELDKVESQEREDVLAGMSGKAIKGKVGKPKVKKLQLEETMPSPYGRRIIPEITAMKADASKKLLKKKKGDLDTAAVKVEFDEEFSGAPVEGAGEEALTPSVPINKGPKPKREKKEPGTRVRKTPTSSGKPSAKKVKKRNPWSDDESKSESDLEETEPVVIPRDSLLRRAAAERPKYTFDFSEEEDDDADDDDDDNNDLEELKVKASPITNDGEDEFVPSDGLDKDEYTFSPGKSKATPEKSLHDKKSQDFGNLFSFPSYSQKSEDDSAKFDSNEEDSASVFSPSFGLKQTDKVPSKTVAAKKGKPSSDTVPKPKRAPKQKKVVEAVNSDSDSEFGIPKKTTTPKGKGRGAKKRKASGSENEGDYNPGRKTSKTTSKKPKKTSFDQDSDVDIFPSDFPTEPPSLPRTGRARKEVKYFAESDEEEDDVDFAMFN
Description: Doxorubicin was used as a positive control. […] (Supplementary file).
SEM: Standard error of mean
as §7
Means with any Common letter (a-d) are not significant (OR Means with totally Different letters (a-d) are significant)
Doxorubicin was used as a positive control.

Compound	Tb luminescence enhancement (induced DNA damage) (calf thymus DNA (ctDNA))	Concentration at which Tb luminescence stops increasing (maximum DNA damage) (calf thymus DNA (ctDNA)) [µM]	LOD (limit of detection; minimum concentration inducing detectable damage in ctDNA) (calf thymus DNA (ctDNA)) [nM]	LOQ (limit of quantitation) (calf thymus DNA (ctDNA)) [nM]	IC50 [1] [µM]	IC50 [2] [µM]	folds more active than doxorubicin [2] [folds]	Selectivity Index (SI) [2]	IC50 [3] [µM]	IC50 [4] [µM]	Apoptosis results: Early apoptosis (MCF-7 cells [5]) [%]	Apoptosis results: Late apoptosis (MCF-7 cells [5])	Apoptosis results: Necrosis (MCF-7 cells [5]) [%]	Apoptosis results: Total (MCF-7 cells [5]) [%]	melting point [°C]	Phase of cell cycle arrest (MCF-7 cells [6])	Cell cycle arrest (%) G0-G1 (MCF-7 cells [6]) [%]	Cell cycle arrest (%) G2/M (MCF-7 cells [6]) [%]	Cell cycle arrest (%) S (MCF-7 cells [6]) [%]	IC50 [7] [nM]
O=C1C(=Nn2cc(-c3ccccc3)n(-c3ccccc3)c2=S)c2cccc3cccc1c23 [5b, 2-((3,4-Diphenyl-2-thioxo-2,3-dihydro-1H-imidazol-1-yl)imino)acenaphthylen-1(2H)-one]	significant enhancement	100	7.78	25.9	7.4	5.11	1.5	17.58	17.1	89.8	15.3 ± 0.50	22.7 ± 0.43% and 22.69%	8.7 ± 0.44	46.6 ± 0.57	240 to 242	S phase	52.7 ± 0.30	13.4 ± 0.41	33.8 ± 0.70	
O=C1C(=Nn2cc(-c3ccc(Cl)cc3)n(-c3ccccc3)c2=S)c2cccc3cccc1c23 [5h, 2-((4-(4-chlorophenyl)-3-phenyl-2-thioxo-2,3-dihydro-1H-imidazol-1-yl)imino)-acenaphthylen-1(2H)-one]	significant enhancement	100	7.14	23.8	4.93	2.65	3	49.27	43.5	131	16.5 ± 0.64	28.4 ± 0.62% and 28.52%	7.5 ± 0.68	52.5 ± 0.68	260 to 262	S phase	48.6 ± 0.73	9.7 ± 0.36	41.7 ± 0.39	340
